Patent US20250295664A1, “THERAPEUTIC COMBINATION OF KRAS G12C INHIBITOR AND TEAD INHIBITOR” (SANOFI, priority 2022, published 2025)

What was measured:
Assay type in all cases: cell-based
[1] = system: KRAS G12C mutant NSCLC cell line HOP-62; experiment: IC50 shift experiment, cell proliferation (Cell Titer Glo), 144 h; settings: for IC50: Homo sapiens, TEAD inhibitor alone, 144 h, read-out: IC50 TEADi; for KRAS G12Ci No1 fold change vs 0.1 μM: IC50 shift of KRAS G12C inhibitor N°1, no TEADi vs TEAD inhibitor 0.1 μM; for KRAS G12Ci No1 fold change vs 1 μM: IC50 shift of KRAS G12C inhibitor N°1, no TEADi vs TEAD inhibitor 1 μM; for KRAS G12Ci No2 fold change vs 0.1 μM: IC50 shift of KRAS G12C inhibitor N°2, no TEADi vs TEAD inhibitor 0.1 μM; for KRAS G12Ci No2 fold change vs 1 μM: IC50 shift of KRAS G12C inhibitor N°2, no TEADi vs TEAD inhibitor 1 μM
Procedure: The KRAS G12C mutant NSCLC cell line HOP-62 was used for this study. Cells were seeded in 96 well plates at 1250 cells per well and incubated 24 hours at 37° C. and 5% CO2. The KRAS G12C inhibitors N°1 and N°2 were used at 10 concentrations and combined with TEAD inhibitors used at 2 concentrations. Compound dilution and distribution to cells was performed on the TECAN MCA384 robotic platform. […] Cell proliferation was measured using Cell Titer Glo from PROMEGA (luminescence). For each KRAS G12C inhibitor, IC50 values in these cell lines were determined in the absence or presence of TEAD inhibitors.

[2] = system: HOP-62 KRAS G12C mutant NSCLC cells; experiment: Ray design combination experiment, cell proliferation (Cell Titer Glo), 96 h; settings: potentiation of KRAS G12C inhibitor N°1 IC50 by the TEAD inhibitor at 370 nM, Ki = potentiation index IC50ai/IC50a
Procedure: (§1) The NSCLC cell line HOP62 which carries a KRASG12C mutation was used for this study. HO-P62 cells were seeded in 384 well plates at 300 cells per well and incubated 24 hours at 37° C. and 5% CO2. The KRAS G12C inhibitor N°1 used at 14 concentrations ranging from 10,000 nM to 0.006 nM was combined with TEAD inhibitors used at 18 concentrations ranging from 10,000 nM to 0.0001 nM, added to HOP-62 cells and incubated for 96 hours at 37° C. and 5% CO2. Compound dilution and distribution to cells was performed on the TECAN MCA384 robotic platform. Cell proliferation was measured using Cell Titer Glo from PROMEGA (luminescence).
(§2) Three independent experiments with triplicates per experiment were performed and analyzed using the combination analysis software Combo2Screen. TEAD inhibitors were defined as non-active in this cell line, their effect on the KRAS G12C inhibitor was determined as an effect of potentiation and was quantified using the potentiation index based on the following equation: […]

[3] = system: H-2030 KRAS G12C mutant NSCLC cells; experiment: Ray design combination experiment, cell proliferation (Cell Titer Glo), 144 h; settings: potentiation of KRAS G12C inhibitor N°1 IC50 by the TEAD inhibitor at 41 nM, Ki = potentiation index IC50ai/IC50a
Procedure: as §1, with “H-2030” for “HOP62”, “H-2030” for “HO-P62”, “250” for “300”, “H-2030” for “HOP-62”, “144” for “96”
as §2, with “triplicates/experiment” for “triplicates per experiment”

Row | Structure (SMILES) | IC50 [1] | KRAS G12Ci No1 fold change vs 0.1 μM [1] | KRAS G12Ci No1 fold change vs 1 μM [1] | KRAS G12Ci No2 fold change vs 0.1 μM [1] | KRAS G12Ci No2 fold change vs 1 μM [1] | Mean fold potentiation 1/Ki [2] | Mean fold potentiation 1/Ki [3]
1 | C=CC(=O)Nc1ccc2c(c1)C(O[C@H]1CC[C@H](C(F)(F)F)CC1)CC2 (relative stereo) [TEAD inhibitor N°6, N-(3-(((trans)-4-(trifluoromethyl)cyclohexyl)oxy)-2,3-dihydro-1H-inden-5-yl) acrylamide] | > 10 µM | 4 fold | 6 fold | 6 fold | 8 fold |  | 
2 | C=CC(=O)Nc1ccc(C)c(Oc2ccc(Cl)cc2)c1 [TEAD inhibitor N°1, N-(3-(4-chlorophenoxy)-4-methylphenyl) acrylamide, reference compound] | 8.8 µM | 8 fold | 9 fold |  |  | 8 fold | 33 fold
3 | C=CC(=O)Nc1ccc2c(c1)CCC2Nc1cccc(C(F)(F)F)c1 (stereo not shown) [TEAD inhibitor N°2, N-(1-((3-(trifluoromethyl)phenyl)amino)-2,3-dihydro-1H-inden-5-yl) acrylamide] |  |  |  |  |  | 8 fold | 18 fold
4 | C=CC(=O)Nc1ccc2c(ccn2-c2ccc(C(F)(F)F)cc2)c1 [TEAD inhibitor N°3, N-(1-(4-(trifluoromethyl)phenyl)-1H-indol-5-yl) acrylamide] | > 10 µM | 6 fold | 7 fold | 9 fold | 8 fold |  | 
5 | C=CC(=O)Nc1ccc2c(c1)c(COC)cn2-c1ccc(C(F)(F)F)cc1 [TEAD inhibitor N°4, N-(3-(methoxymethyl)-1-(4-(trifluoromethyl)phenyl)-1H-indol-5-yl) acrylamide] | > 10 µM | 5 fold | 10 fold | 8 fold | 12 fold |  | 
6 | C=CC(=O)Nc1ccc2c(c1)c(C)cn2Cc1cccc(C(F)(F)F)c1 [TEAD inhibitor N°5, N-(3-methyl-1-(3-(trifluoromethyl)benzyl)-1H-indol-5-yl) acrylamide] | > 10 µM | 4 fold | 7 fold | 8 fold | 13 fold |  | 
7 | C=CC(=O)Nc1ccc2c(c1)C(Nc1ccc(F)c(F)c1)CC2 (stereo not shown) [TEAD inhibitor N°7, N-(3-((3,4-difluorophenyl)amino)-2,3-dihydro-1H-inden-5-yl) acrylamide] | > 10 µM | 6 fold | 13 fold | 9 fold | 21 fold |  | 
8 | C=CC(=O)Nc1ccc2c(c1)C(Oc1ccc(C(F)(F)F)cc1)CC2 (stereo not shown) [TEAD inhibitor N°8, N-(3-(4-(trifluoromethyl)phenoxy)-2,3-dihydro-1H-inden-5-yl) acrylamide] | > 10 µM | 6 fold | 9 fold | 10 fold | 12 fold |  | 
